pIC50: −log10 of the molar value. Structures can show the parent of a compound that is named as a salt.

The first assay has as its system thrombus formation.
Assay: not given
The conditions noted are these: canine models; cited from earlier work.
On to `O=C(c1ccc(F)cc1)C1CCN(CCn2c(=O)[nH]c3ccccc3c2=O)CC1` [Ketanserin], for which the “prevention of thrombus formation” value was “extremely effective in preventing thrombus formation”.

The subject of the next assay is coronary vessel constriction.
Assay: not given
The note with it: patients with stable angina; cited from earlier work.
On to `O=C(c1ccc(F)cc1)C1CCN(CCn2c(=O)[nH]c3ccccc3c2=O)CC1` [Ketanserin], for which the coronary vessel constriction result is “blocked coronary vessel constriction”.

For the next assay, the target named is T1, 5HT2 receptor (Rattus norvegicus, UniProt P14842).
T1 construct: from tissue
T1 sequence (P14842 whole entry): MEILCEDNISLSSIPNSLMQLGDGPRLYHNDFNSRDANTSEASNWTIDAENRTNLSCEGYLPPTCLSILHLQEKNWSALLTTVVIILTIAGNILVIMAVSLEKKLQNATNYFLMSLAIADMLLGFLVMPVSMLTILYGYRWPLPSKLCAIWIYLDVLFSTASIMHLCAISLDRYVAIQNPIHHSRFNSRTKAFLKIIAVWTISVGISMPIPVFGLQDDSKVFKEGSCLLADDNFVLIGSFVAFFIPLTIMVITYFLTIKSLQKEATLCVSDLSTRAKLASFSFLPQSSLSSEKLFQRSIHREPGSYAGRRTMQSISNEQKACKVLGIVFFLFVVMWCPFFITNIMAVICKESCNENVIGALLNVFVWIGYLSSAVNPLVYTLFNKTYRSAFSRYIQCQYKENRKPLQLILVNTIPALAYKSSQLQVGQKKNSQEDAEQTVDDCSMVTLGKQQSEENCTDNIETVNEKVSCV
Briefly: spiroperidol binding test (5HT2 binding affinity). The conditions noted are these: [3H] spiroperidol binding; concentration of compound at 50% inhibition. An excerpt:
As noted above, the compounds of Formula I are serotonin 5HT2 antagonists. […] In this test, 5HT2 receptors are exposed to both [^3H] spiroperidol, (a substance known to have a specific affinity for the receptor) and the test compound. The extent to which there is a decrease in binding of the [^3H] spiroperidol to the receptor is indicative of the affinity of the test compound for the 5HT2 receptor.
d) any reference to “5HT2 binding affinity” refers to the spiroperidol binding test as described by Peroutka et al., in Mol.Pharmacol., Vol. 16, pages 687-699 (1979).
Usually pIC50 stands for the negative decadic logarithm of the IC50, by convention in mol/L. A lower pIC50 goes with a large IC50. `O=C(CN1CCC(Cn2c(=O)[nH]c3ccccc3c2=O)CC1)c1ccc(F)cc1` [Example 12, 2-[[1-[2-(4-fluorophenyl)-2-oxoethyl]-4-piperidinyl]methyl]-benzoyleneurea]: the negative logarithm of the IC50 (pIC50) is 7.83. `O=C(CN1CCC(CN2C(=O)C3CC=CCC3C2=O)CC1)c1ccc(F)cc1` (stereo not drawn) [Example 3, 2-[[1-[2-(4-fluorophenyl)-2-oxoethyl]-4-piperidinyl]methyl]-3a,4,7,7a-tetrahydro-1H-isoindole-1,3(2H)-dione monohydrohydrochloride] had a pIC50 of 6.69. In turn, `O=C(CN1CCC(CN2C(=O)c3ccccc3C2=O)CC1)c1ccccc1` [Example 10, 2-[[1-[2-phenyl-2-oxoethyl]-4-piperidinyl]methyl]-1H-isoindole-1,3(2H)-dione monohydrochloride] showed a pIC50 of 7.89. This pIC50 is 1.20 log units higher than that of the molecule before. The molecule `O=C(CN1CCC(CN2C(=O)c3cccc4cccc(c34)C2=O)CC1)c1ccc(F)cc1` [Example 9, 2-[[1-[2-(4-fluorophenyl)-2-oxoethyl]-4-piperidinyl]methyl]-1H-benz[de]isoquinoline-1,3(2H)-dione monohydrochloride] gave a negative-log IC50 (pIC50) of 7.02. Still for that read-out and setting: the same measure for `O=C(CN1CCC(CN2C(=O)C3C4C=CC(C4)C3C2=O)CC1)c1ccc(F)cc1` (stereo not drawn) [Example 6, 2-[[1-[2-(4-fluorophenyl)-2-oxoethyl]-4-piperidinyl]methyl]-3a,4,7,7a-tetrahydro-4,7-methano-1H-isoindole-1,3(2H)-dione monohydrochloride]: 6.76.

Take `O=C(CN1CCC(CN2C(=O)[C@@H]3CCCC[C@H]3C2=O)CC1)c1ccc(F)cc1` (relative stereo) [Example 5, trans-2-[[1-[2-(4-fluorophenyl)-2-oxoethyl]-4-piperidinyl]methyl]hexahydro-1H-isoindole-1,3(2H)-dione monohydrochloride]: the pIC50 is 7.12. Same read-out and setting: the same measure for `O=C(CN1CCC(CN2C(=O)c3cccc(F)c3C2=O)CC1)c1ccc(F)cc1` [Example 11, 2-[[1-[2-(4-fluorophenyl)-2-oxoethyl]-4-piperidinyl]methyl]-4-fluoro-1H-isoindole-1,3(2H)-dione monohydrochloride]: 7.48; for `Cc1ccc2c(c1)C(=O)N(CC1CCN(CC(=O)c3ccc(F)cc3)CC1)C2=O` [Example 8, 2-[[1-[2-(4-fluorophenyl)-2-oxoethyl]-4-piperidinyl]methyl]-5-methyl-1H-isoindole-1,3(2H)-dione monohydrochloride]: 6.94. Same read-out and setting: the same measure for `O=C(CN1CCC(CN2C(=O)C3C4C=CC(CC4)C3C2=O)CC1)c1ccc(F)cc1` (stereo not drawn) [Example 1, 2-[[1-[2-(4-fluorophenyl)-2-oxoethyl]-4-piperidinyl]methyl]-3a,4,7,7a-tetrahydro-4,7-ethano-1H-isoindole-1,3(2H)-dione monohydrochloride]: 7.32.

Take `O=C(CN1CCC(CN2C(=O)C(c3ccccc3)=C(c3ccccc3)C2=O)CC1)c1ccc(F)cc1` [Example 7, 1-[[1-[2-(4-fluorophenyl)-2-oxoethyl]-4-piperidinyl]methyl]-3,4-diphenyl-1H-pyrrole-2,5-dione monohydrohydrochloride]: the negative logarithm of the IC50 (pIC50) is 6.51.

Molecule `O=C(CN1CCC(CN2C(=O)c3ccccc3C2=O)CC1)c1ccc(F)cc1` [Example 2, 2-[[1-[2-(4-fluorophenyl)-2-oxoethyl]-4-piperidinyl]methyl]-1H-isoindole-1,3(2H)-dione] gave a negative-log IC50 (pIC50) of 7.89. Still for that read-out and setting: to `O=C(CN1CCC(CN2C(=O)[C@H]3CCCC[C@H]3C2=O)CC1)c1ccc(F)cc1` [Example 4, cis-2-[[1-[2-(4-fluorophenyl)-2-oxoethyl]-4-piperidinyl]methyl]hexahydro-1H-isoindole-1,3(2H)-dione monohydrochloride] belongs 6.79.

The subject of a further assay is preference for alcohol and cocaine.
Assay: not given
The conditions noted are these: rodent model of drug abuse; cited from earlier work.
As for `Cc1nc2sccn2c(=O)c1CCN1CCC(=C(c2ccc(F)cc2)c2ccc(F)cc2)CC1` [ritanserin], the “preference for alcohol and cocaine” value is “abolished the preference for both alcohol and cocaine”.

Values taken from patent US20030083325A1, “Serotonin antagonists” (priority 1992, published 2003).
